As usually defined, the Emax is the size of the effect at its maximum, as opposed to the concentration needed. By IC50 is commonly meant the midpoint of a concentration-inhibition curve. Lower therefore signals higher potency.

In assay [1] the target is T1, ACKR3 (Homo sapiens, UniProt P25106). Put plainly: ACKR3-mediated uptake of Cy5-labeled BAM22 in U87-ACKR3 cells (imaging flow cytometry). It counts as cell-based. Also on record: expressed in transfected cells; host or cells: U87-ACKR3 (ACKR3-negative U87 as control). To be noted: concentration-dependent, FIG. 7. On the procedure:
U87-ACKR3 cells were distributed into 96-well plates (2×10^5 cells per well in Opti-MEM). After 15-minute incubation at 37° C. with WW-1 or WW-12 or controls, Cy5-labeled BAM22 was added, incubated for 40 minutes at 37° C. and washed twice with FACS buffer. Dead cells were excluded using Zombie Green viability dye. Images of 1×10^4 in-focus living single cells were acquired with an ImageStream MKII imaging flow cytometer (Amnis, running on the INSPIRE Mark II software (EMD Millipore)) using 40× magnification (60× magnification for smNPCs). Samples were analyzed using Ideas6.2 software. The number of spots per cell was determined using a mask-based software wizard.
For orientation: A flow cytometer gives signals particle by particle.

The target of the next assay is DOR (Homo sapiens, UniProt P41143). The experiment in a line: DOR calcium mobilization agonist/antagonist screen (CHO-RD-HGA16 cells). The assay is classed as cell-based. Also noted: host or cells: CHO-RD-HGA16. The note with it: single concentration; for Emax: CHO-RD-HGA16, agonist screen, control agonist DPDPE.
Assay [2] addresses T1, ACKR3. The experiment in a line: Binding competition assay with CXCL12-AF647 on U87-ACKR3 cells. Also on record: expressed in transfected cells; host or cells: U87-ACKR3 (ACKR3-negative U87 as control). The note with it: 5 nM CXCL12-AF647, FIG. 1 section D. From the text:
Dead cells were excluded using Zombie Green viability dye (BioLegend). […] Ligand binding was quantified by mean fluorescence intensity on a BD FACS Fortessa cytometer (BD Biosciences) using FACS Diva 8.01 (BD Biosciences).

T1 sequence (P25106 whole entry): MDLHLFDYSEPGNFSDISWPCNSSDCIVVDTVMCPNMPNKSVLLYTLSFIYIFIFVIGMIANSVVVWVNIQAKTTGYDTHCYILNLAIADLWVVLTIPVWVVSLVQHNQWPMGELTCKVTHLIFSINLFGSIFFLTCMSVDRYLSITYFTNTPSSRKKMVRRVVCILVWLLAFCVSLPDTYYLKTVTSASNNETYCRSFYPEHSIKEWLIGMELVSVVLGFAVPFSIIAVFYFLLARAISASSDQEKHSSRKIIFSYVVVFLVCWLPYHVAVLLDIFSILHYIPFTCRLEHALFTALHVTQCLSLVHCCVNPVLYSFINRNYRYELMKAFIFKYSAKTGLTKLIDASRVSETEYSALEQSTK
DOR, sequence (P41143 whole entry): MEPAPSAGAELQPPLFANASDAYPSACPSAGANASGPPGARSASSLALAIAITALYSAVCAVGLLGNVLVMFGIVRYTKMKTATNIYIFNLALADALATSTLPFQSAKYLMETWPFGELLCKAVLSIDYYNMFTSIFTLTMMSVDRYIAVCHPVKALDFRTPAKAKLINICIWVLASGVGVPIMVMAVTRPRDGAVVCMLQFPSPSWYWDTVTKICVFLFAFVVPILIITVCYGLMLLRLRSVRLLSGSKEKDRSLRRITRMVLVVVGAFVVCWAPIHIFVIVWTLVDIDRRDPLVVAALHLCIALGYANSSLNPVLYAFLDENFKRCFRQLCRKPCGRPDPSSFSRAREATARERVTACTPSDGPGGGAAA

Consider `C/C=C1/CN2CC[C@H]1C(=O)c1[nH]c3ccccc3c1C2` [WW-1, (4E,5R)-4-ethylidene-1,4,5,7-tetrahydro-2,5-ethanoazocino[4,3-b]indol-6(3H)-one], for which, at ACKR3 [1], the “inhibition of uptake of Cy5-labelled BAM22 by ACKR3” value is recorded as “able to restrain the uptake”. Further, on DOR, the maximal effect (Emax) worked out at 0%. In addition, the “DOR Calcium % DPDPE Inhibition” value on DOR (antagonist screen, vs EC60 of DPDPE) was 22%. Besides, the 50% inhibitory concentration (IC50) at ACKR3 [2] was 39.9 µM.

With `C/C=C1/CN(CCCCC)CC[C@H]1C(=O)c1cc2ccccc2[nH]1` [WW-12, [(3E,4R)-3-ethylidene-1-pentylpiperidin-4-yl](1H-indol-2-yl)methanone], the “inhibition of uptake of Cy5-labelled BAM22 by ACKR3” value against ACKR3 [1] is listed as “able to restrain the uptake”. For the same compound, the Emax at DOR is 6%. At ACKR3 [2], the 50% inhibitory concentration (IC50) is 2.7 µM.

Values taken from patent publication US20240059688A1, “CONOLIDINE ANALOGUES AS SELECTIVE ACKR3 MODULATORS FOR THE TREATMENT OF CANCER” (Luxembourg Institute of Health (LIH), priority 2020, published 2024).
